The text below walks through data of patent US20040127396A1, “Use of furin and furin-like protease inhibitors in the treatment of inflammatory or matrix remodelling diseases” (priority 2000, published 2004).

Assay [1] relates to TACE maturation in LoVo NEO cells. Description: TACE maturation in LoVo NEO cells by Western blotting. The conditions noted are these: 24 hrs, various concentrations, FIG. 5B. The class given is cell-based, human. The source says: To assess the involvement of furin in TACE endoproteolytic processing, applicant first used a furin-deficient cell line, the LoVo cells. These are human colon carcinoma cells which have a point mutation in both alleles of the fur gene leading to production of a defective enzyme (reference 46). These furin knock-out cells have been extensively used to study the contribution of furin in a cellular context (references 10, 38 and 47). LoVo cells were transfected with wild type furin and two stable transfectants LoVoFUR1 and LoVoFUR2 and control transfectant LoVoNEO have been generated accordingly to their acquired gentamycin resistance. Cell lysates were assessed by Western blotting for the production of TACE proteolytic fragments in immunoblotting using TACE-specific antibodies (Chemicon International, CA). […]
To define if proprotein convertases other than furin are involved in TACE maturation, LoVo NEO cells were incubated for 24 hrs in the presence of Dec-RVKR-CH2Cl, a synthetic peptide that mimics proprotein recognition site. […] LoVo NEO cells were incubated for 24 hrs in the presence of various concentrations of Dec-RVKR-CH2Cl, and cell lysates were assessed for TACE maturation by Western blotting as described above.

Assay [2] concerns TNFα release from MonoMac-1 cells. Description: TNFα release from LPS/PMA-stimulated MonoMac-1 cells (ELISA). Format: cell-based, human. The note with it: 22 hrs preincubation, then LPS and PMA 3 hours, FIG. 5D. The procedure: To investigate whether the levels of TACE maturation observed in LoVo transfectants impacts TACE-related activities, we first measured cell-surface p75 TNF receptor expression as a marker for TACE cell-surface activity. Briefly, LoVo NEO and LoVo FUR2 cell samples were labeled with anti-TACE or anti-TNF p75 receptor antibodies (Catlag laboratories, Burlingame, Calif.) and cell fluorescence was analyzed on a FACScan (Becton Dickinson). […] Next, we measured the ability of Dec-RVKR-CH2Cl to block TNFα release from MonoMac-1 cells, a human monocytic cell line known to produce high levels of this cytokine (50). For this, MonoMac-1 cells were preincubated for 22 hrs with varying concentrations of Dec-RVKR-CH2Cl, then 500 ng/ml LPS and 100 ng/ml PMA were added. After 3 hours incubation with PMA and LPS, the supernatants were tested for TNF-α production using a TNF-α-specific ELISA assay (R&D Systems, Minneapolis, Minn.).

Assay [3] deals with proprotein convertases including furin, PC6B, PC3, PC2, PACE-4 and PC7. The conditions noted are these: cited from earlier work.

As for Dec-RVKR-CH2Cl, the TACE maturation entry in assay [1] was “further inhibition of TACE maturation”. Besides, the TNFα released entry in assay [2] is recorded as “blocked almost completely”. The “inhibition of enzymatic activity of proprotein convertases” value in assay [3] was “efficiently inhibit”.
